Measured values as given in patent EP3839043A1, “SCREENING METHODS FOR COMPOUNDS MODULATING POLYAMINE TRANSPORT” (Katholieke Universiteit Leuven, priority 2019, dated 2021).

Biological target: T1, Purified ATP13A2 (Homo sapiens, UniProt Q9NQ11)
T1 sequence (Q9NQ11 1-1175 isoform Q9NQ11-3): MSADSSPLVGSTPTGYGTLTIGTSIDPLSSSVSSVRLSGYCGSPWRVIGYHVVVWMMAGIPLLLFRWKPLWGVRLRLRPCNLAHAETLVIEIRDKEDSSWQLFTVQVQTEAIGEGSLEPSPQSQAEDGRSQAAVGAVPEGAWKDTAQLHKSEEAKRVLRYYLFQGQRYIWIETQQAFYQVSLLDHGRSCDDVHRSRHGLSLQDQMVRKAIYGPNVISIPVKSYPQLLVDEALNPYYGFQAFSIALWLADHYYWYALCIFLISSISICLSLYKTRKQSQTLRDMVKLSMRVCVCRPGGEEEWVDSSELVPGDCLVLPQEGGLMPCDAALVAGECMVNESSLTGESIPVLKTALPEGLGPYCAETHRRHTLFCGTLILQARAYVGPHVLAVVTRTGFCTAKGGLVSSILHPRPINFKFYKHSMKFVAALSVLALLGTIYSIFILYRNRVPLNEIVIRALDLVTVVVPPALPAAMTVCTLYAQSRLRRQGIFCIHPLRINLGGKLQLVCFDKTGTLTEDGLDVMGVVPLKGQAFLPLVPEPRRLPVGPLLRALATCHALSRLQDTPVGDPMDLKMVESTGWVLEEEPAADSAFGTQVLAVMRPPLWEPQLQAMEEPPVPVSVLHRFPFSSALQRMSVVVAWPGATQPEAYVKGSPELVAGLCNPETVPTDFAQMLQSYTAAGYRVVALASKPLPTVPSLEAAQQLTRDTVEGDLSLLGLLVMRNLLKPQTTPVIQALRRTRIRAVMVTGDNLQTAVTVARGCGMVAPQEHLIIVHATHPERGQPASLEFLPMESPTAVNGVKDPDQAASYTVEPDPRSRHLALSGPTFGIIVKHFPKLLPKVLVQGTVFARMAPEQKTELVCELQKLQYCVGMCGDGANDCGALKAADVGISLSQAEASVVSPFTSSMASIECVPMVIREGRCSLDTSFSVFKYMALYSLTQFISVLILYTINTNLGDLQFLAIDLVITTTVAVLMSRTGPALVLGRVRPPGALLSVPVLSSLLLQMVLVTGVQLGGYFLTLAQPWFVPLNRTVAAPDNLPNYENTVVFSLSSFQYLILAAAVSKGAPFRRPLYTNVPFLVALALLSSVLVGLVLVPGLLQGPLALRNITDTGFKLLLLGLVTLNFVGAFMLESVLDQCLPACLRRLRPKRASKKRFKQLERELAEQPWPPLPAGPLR
Test: ATPase assay (ADP-Glo Max), purified ATP13A2 from yeast expression system
Type: biochemical
Design: we obtained >95% pure, full length and solubilized ATP13A2; biotin acceptor domain (BAD) tag behind a thrombin cleavage site (C, cleaved yes); made in house; host or cells: S. cerevisiae W303-1B/Gal4-ΔPep4, pYeDP60 vector
Conditions: for Vmax ± SEM: Purified ATP13A2 with 125 µM PA and 125 µM PI(3,5)P2
Protocol: ATPase assay - The ATPase activity of ATP13A2 was assessed using a commercially available luminescence assay (ADP-Glo Max assay, Promega) that monitors the production of ADP via luciferase activity. The reactions were performed for 30 min (37°C) in a final volume of 25 µl. The assay reaction mixture contained 50 mM MOPS-KOH (pH 7), 100 mM KCI, 11 mM MgCl2, 1 mM DTT, 195 µM DDM, various concentrations of the indicated compound, and either microsomes (5 µg) harvested from SH-SY5Y cells overexpressing ATP13A2 (WT or mutants) or purified ATP13A2 (0.5 µg). When purified ATP13A2 was used, we included 125 µM PA, 125 µM PI(3,5)P2 and 19.5 µM DDM in the reaction buffer. The assay was started by the addition of 5 mM ATP and was terminated by adding 25 µl of ADP-Glo Reagent. The 96-well plate was then incubated for 40 min at room temperature, followed by the addition of 50 µl of ADP-Glo Max Detection Reagent. After 40 min, luminescence was detected using a FlexStation 3.0 system (Molecular Devices). Dose-response curves and n/Km/Vmax values were calculated using GraphPad Prism Software (GraphPad Software Inc.).
Transformation and overexpression of ATP13A2 in yeast - The S. cerevisiae W303-1B/Gal4-ΔPep4 strain (leu2-3, his3-11,15, trp1-1::TRP1-GAL10-GAL4, ura3-1, ade2-1, canr, cir^+, ΔPep4 MAT; a kind gift from Rosa Lopez Marques) was transformed according to the lithium acetate/single-stranded carrier DNA/polyethylene glycol method [Gietz, R. D. & Woods, R. A. Methods Enzymol 350, 87-96 (2002)], with the pYeDP60 vector containing a yeast codon optimized version of human ATP13A2 variant 2 (WT or the catalytically dead E343A mutant) followed by a thrombin cleavage site and a C-terminal BAD tag [Azouaoui, H. et al. PLoS One 9, e112176, (2014); Jidenko, M. et al.Protein Expr Purif 48, 32-42, (2006)]. The transformation mixture was grown for 48 h at 30°C on minimal medium agar plates lacking uracil (0.54% yeast nitrogen base without amino acids, 0.12% yeast drop-out mix without Ura, 2% glucose, and 2% agar) to select yeast colonies that acquired the plasmid. These colonies were then cultured in 20 ml of MM-Ura medium (0.67% yeast nitrogen base without amino acids, 0.19% yeast drop-out mix without Ura, and 2% glucose) and grown for 24 h at 28°C and 200 rpm. The MM-Ura yeast pre-culture was used to inoculate 100 ml of MM-Ura medium to a final OD600 of 0.2, followed by a 12 h incubation period (28°C and 200 rpm). The second pre-culture was inoculated into 4.5 l of YPGE2X medium (2% yeast extract, 2% bactopeptone, 1% glucose, and 2.7% ethanol) to a final OD600 of 0.05 and grown for 36 h (28°C and 175 rpm). ATP13A2-BAD expression was induced with 2% galactose, followed by a second galactose induction 12 h later. After another 12 h, the pellet was collected (1,000 x g; 10 min; 4°C).
Yeast membrane preparation - Yeast cells were broken with glass beads using a BeadBeater (BioSpec products). The lysis buffer contained 50 mM Tris-HCI (pH 7.5), 1 mM EDTA, 0.6 M sorbitol, 1 mM phenylmethylsulfonyl fluoride and SigmaFast protease inhibitor. To remove cell debris and nuclei, the crude extract was centrifuged at 2,000 x g for 20 min (4°C). The supernatant (S1) was centrifuged at 20,000 x g for 20 min (4°C) to pellet the heavy membrane fraction (P2), and the resulting supernatant (S2) was further centrifuged at 200,000 x g for 1 h (4°C). The resulting pellet (i.e., the light membrane fraction, P3) was resuspended in 20 mM HEPES-Tris (pH 7.4), 0.3 M sucrose and 0.1 mM CaCl2. The total protein concentration was determined using a Bradford assay (B6916, Sigma-Aldrich).
ATP13A2-BAD purification - The method used to purify ATP13A2 was based on the purification of overexpressed Drs2p from yeast membranes. Yeast P3 membranes were diluted to 5 mg of total protein/ml in SSR buffer (50 mM MOPS-KOH (pH 7), 100 mM KCI, 20% glycerol, 5 mM MgCl2, 1 mM DTT, and SigmaFast protease inhibitor cocktail) and solubilized using DDM, with a detergent to protein ratio of 1:1.

## NCCCCNCCCN [Spermidine, spermidine]
  Vmax ± SEM: 194 ± 26 nmol ADP/mg/min

## NCCCNCCCCNCCCN [Spermine, spermine]
  Vmax ± SEM: 159 ± 10 nmol ADP/mg/min
Indicated SPM concentrations
  ATPase activity of purified ATP13A2: stimulated the ATPase activity
